In the CheMixHub viscosity set:
Where “and” joins values, the source holds several entries; their conditions need not be identical. Identical values can stand only once. ± gives the uncertainty stated by the source.

CCCCn1cc[n+](C)c1.O=S(=O)([N-]S(=O)(=O)C(F)(F)F)C(F)(F)F
viscosity (293.15 K, 100 kPa): 61.47 ± 2.7 mPa·s
viscosity (293.15 K, 101 kPa): 64.6 ± 1.3 mPa·s and 62.91 ± 2.6 mPa·s and 65.11 ± 0.61 mPa·s
viscosity (293.15 K, 101.3 kPa): 63.1 ± 1.3 mPa·s
viscosity (293.3 K, 100 kPa): 62.66 ± 4 mPa·s
viscosity (293.61 K, 100 kPa): 61.82 ± 3.9 mPa·s
viscosity (293.91 K, 100 kPa): 60.98 ± 3.8 mPa·s
viscosity (294.21 K, 100 kPa): 60.17 ± 3.8 mPa·s
viscosity (294.52 K, 100 kPa): 59.36 ± 3.7 mPa·s
viscosity (294.82 K, 100 kPa): 58.58 ± 3.6 mPa·s
viscosity (295.12 K, 100 kPa): 57.8 ± 3.6 mPa·s
viscosity (295.42 K, 100 kPa): 57.04 ± 3.5 mPa·s
viscosity (295.73 K, 100 kPa): 56.29 ± 3.4 mPa·s
viscosity (296.03 K, 100 kPa): 55.56 ± 3.4 mPa·s
viscosity (296.33 K, 100 kPa): 54.84 ± 3.3 mPa·s
viscosity (296.64 K, 100 kPa): 54.13 ± 3.2 mPa·s
viscosity (296.94 K, 100 kPa): 53.43 ± 3.2 mPa·s
viscosity (297.24 K, 100 kPa): 52.75 ± 3.1 mPa·s
viscosity (297.55 K, 100 kPa): 52.07 ± 3.1 mPa·s
viscosity (297.85 K, 100 kPa): 51.41 ± 3 mPa·s
viscosity (298 K, 100 kPa): 49.74 ± 1.3 mPa·s
viscosity (298 K, 101 kPa): 50.4 ± 1.9 mPa·s
viscosity (298.15 K, 101 kPa): 50.29 ± 2.1 mPa·s and 51.73 ± 0.46 mPa·s and 45.3 ± 1.1 mPa·s
viscosity (298.15 K, 101.3 kPa): 50.53 ± 1 mPa·s
viscosity (298.45 K, 100 kPa): 50.12 ± 2.9 mPa·s
viscosity (298.76 K, 100 kPa): 49.49 ± 3.1 mPa·s
viscosity (299.06 K, 100 kPa): 48.87 ± 3 mPa·s
viscosity (299.36 K, 100 kPa): 48.26 ± 3 mPa·s
viscosity (299.67 K, 100 kPa): 47.66 ± 2.9 mPa·s
viscosity (299.97 K, 100 kPa): 47.08 ± 2.9 mPa·s
viscosity (300.27 K, 100 kPa): 46.5 ± 2.9 mPa·s
viscosity (300.58 K, 100 kPa): 45.93 ± 2.8 mPa·s
viscosity (300.88 K, 100 kPa): 45.37 ± 2.8 mPa·s
viscosity (301.18 K, 100 kPa): 44.82 ± 2.8 mPa·s
viscosity (301.48 K, 100 kPa): 44.27 ± 2.7 mPa·s
viscosity (301.79 K, 100 kPa): 43.74 ± 2.7 mPa·s
viscosity (302.09 K, 100 kPa): 43.22 ± 2.6 mPa·s
viscosity (302.39 K, 100 kPa): 42.7 ± 2.6 mPa·s
viscosity (302.7 K, 100 kPa): 42.19 ± 2.6 mPa·s
viscosity (303 K, 100 kPa): 41.69 ± 2.5 mPa·s
viscosity (303.15 K, 100 kPa): 40.54 ± 0.51 mPa·s and 39.95 ± 1.8 mPa·s
viscosity (303.15 K, 101 kPa): 40.77 ± 1.7 mPa·s and 41.8 ± 0.39 mPa·s
viscosity (303.61 K, 100 kPa): 40.71 ± 2.5 mPa·s
viscosity (303.91 K, 100 kPa): 40.23 ± 2.4 mPa·s
viscosity (304.21 K, 100 kPa): 39.76 ± 2.4 mPa·s
viscosity (304.52 K, 100 kPa): 39.3 ± 2.4 mPa·s
viscosity (304.82 K, 100 kPa): 38.85 ± 2.3 mPa·s
viscosity (305.12 K, 100 kPa): 38.4 ± 2.3 mPa·s
viscosity (305.42 K, 100 kPa): 37.96 ± 2.3 mPa·s
viscosity (305.73 K, 100 kPa): 37.52 ± 2.2 mPa·s
viscosity (306.03 K, 100 kPa): 37.09 ± 2.2 mPa·s
viscosity (306.33 K, 100 kPa): 36.67 ± 2.2 mPa·s
viscosity (306.64 K, 100 kPa): 36.25 ± 2.2 mPa·s
viscosity (306.94 K, 100 kPa): 35.85 ± 2.1 mPa·s
viscosity (307.24 K, 100 kPa): 35.44 ± 2.1 mPa·s
viscosity (307.55 K, 100 kPa): 35.04 ± 2.1 mPa·s
viscosity (307.85 K, 100 kPa): 34.65 ± 2.1 mPa·s
viscosity (308.15 K, 101 kPa): 34.3 ± 0.32 mPa·s
viscosity (308.15 K, 101.3 kPa): 33.95 ± 0.71 mPa·s
viscosity (308.76 K, 100 kPa): 33.51 ± 2 mPa·s
viscosity (309.06 K, 100 kPa): 33.14 ± 2 mPa·s
viscosity (309.36 K, 100 kPa): 32.78 ± 1.9 mPa·s
viscosity (309.67 K, 100 kPa): 32.42 ± 1.9 mPa·s
viscosity (309.97 K, 100 kPa): 32.07 ± 1.9 mPa·s
viscosity (310.27 K, 100 kPa): 31.72 ± 1.9 mPa·s
viscosity (310.58 K, 100 kPa): 31.38 ± 1.8 mPa·s
viscosity (310.88 K, 100 kPa): 31.04 ± 1.8 mPa·s
viscosity (311.18 K, 100 kPa): 30.71 ± 1.8 mPa·s
viscosity (311.48 K, 100 kPa): 30.38 ± 1.8 mPa·s
viscosity (311.79 K, 100 kPa): 30.05 ± 1.8 mPa·s
viscosity (312.09 K, 100 kPa): 29.73 ± 1.7 mPa·s
viscosity (312.39 K, 100 kPa): 29.42 ± 1.7 mPa·s
viscosity (312.7 K, 100 kPa): 29.11 ± 1.7 mPa·s
viscosity (313 K, 100 kPa): 28.8 ± 1.7 mPa·s
viscosity (313.15 K, 100 kPa): 28 ± 0.36 mPa·s
viscosity (313.15 K, 101 kPa): 28.06 ± 1.2 mPa·s
viscosity (313.15 K, 101.3 kPa): 28.39 ± 0.59 mPa·s
viscosity (313.2 K, 101.33 kPa): 27.26 ± 2.9 mPa·s
viscosity (313.61 K, 100 kPa): 28.2 ± 1.6 mPa·s
viscosity (313.91 K, 100 kPa): 27.91 ± 1.6 mPa·s
viscosity (314.21 K, 100 kPa): 27.62 ± 1.6 mPa·s
viscosity (314.52 K, 100 kPa): 27.33 ± 1.6 mPa·s
viscosity (314.82 K, 100 kPa): 27.05 ± 1.6 mPa·s
viscosity (315.12 K, 100 kPa): 26.77 ± 1.6 mPa·s
viscosity (315.42 K, 100 kPa): 26.49 ± 1.5 mPa·s
viscosity (315.73 K, 100 kPa): 26.22 ± 1.5 mPa·s
viscosity (316.03 K, 100 kPa): 25.95 ± 1.5 mPa·s
viscosity (316.33 K, 100 kPa): 25.69 ± 1.5 mPa·s
viscosity (316.64 K, 100 kPa): 25.43 ± 1.5 mPa·s
viscosity (316.94 K, 100 kPa): 25.17 ± 1.4 mPa·s
viscosity (317.24 K, 100 kPa): 24.92 ± 1.4 mPa·s
viscosity (317.55 K, 100 kPa): 24.67 ± 1.4 mPa·s
viscosity (318.15 K, 100 kPa): 23.75 ± 0.31 mPa·s and 24.18 ± 1.4 mPa·s
viscosity (318.76 K, 100 kPa): 23.7 ± 1.4 mPa·s
viscosity (319.06 K, 100 kPa): 23.47 ± 1.3 mPa·s
viscosity (319.36 K, 100 kPa): 23.23 ± 1.3 mPa·s
viscosity (319.67 K, 100 kPa): 23 ± 1.3 mPa·s
viscosity (319.97 K, 100 kPa): 22.78 ± 1.3 mPa·s
viscosity (320.27 K, 100 kPa): 22.56 ± 1.3 mPa·s
viscosity (320.58 K, 100 kPa): 22.34 ± 1.3 mPa·s
viscosity (320.88 K, 100 kPa): 22.12 ± 1.2 mPa·s
viscosity (321.18 K, 100 kPa): 21.9 ± 1.2 mPa·s
viscosity (321.48 K, 100 kPa): 21.69 ± 1.2 mPa·s
viscosity (321.79 K, 100 kPa): 21.48 ± 1.2 mPa·s
viscosity (322.09 K, 100 kPa): 21.28 ± 1.2 mPa·s
viscosity (322.39 K, 100 kPa): 21.07 ± 1.2 mPa·s

C1COCCO1
viscosity (293.15 K, 100 kPa): 1.286 ± 0.13 mPa·s and 1.221 ± 0.24 mPa·s
viscosity (293.15 K, 101 kPa): 1.271 ± 0.012 mPa·s
viscosity (293.15 K, 101.3 kPa): 1.297 ± 0.017 mPa·s
viscosity (295.1 K, 101.32 kPa): 1.26 ± 0.0099 mPa·s
viscosity (298.15 K, 100 kPa): 1.122 ± 0.23 mPa·s
viscosity (298.15 K, 101 kPa): 1.155 ± 0.011 mPa·s
viscosity (298.15 K, 101.33 kPa): 1.321 ± 0.009 mPa·s and 1.149 ± 0.02 mPa·s
viscosity (301.15 K, 101.32 kPa): 1.116 ± 0.0088 mPa·s
viscosity (302.15 K, 101 kPa): 1.099 ± 0.0087 mPa·s
viscosity (303.15 K, 100 kPa): 1.034 ± 0.21 mPa·s
viscosity (304.15 K, 101.32 kPa): 1.046 ± 0.0083 mPa·s
viscosity (306.15 K, 101 kPa): 1.029 ± 0.0082 mPa·s
viscosity (307.15 K, 101.32 kPa): 0.9913 ± 0.0079 mPa·s
viscosity (308.15 K, 100 kPa): 0.999 ± 0.04 mPa·s
viscosity (308.15 K, 101.33 kPa): 1 ± 0.007 mPa·s and 0.999 ± 0.025 mPa·s and 0.969 ± 0.016 mPa·s
viscosity (309.15 K, 101 kPa): 0.9815 ± 0.0078 mPa·s
viscosity (310.15 K, 101.32 kPa): 0.9402 ± 0.0075 mPa·s
viscosity (311.15 K, 101 kPa): 0.9497 ± 0.022 mPa·s
viscosity (313.1 K, 101 kPa): 0.929 ± 0.015 mPa·s and 0.929 ± 0.016 mPa·s
viscosity (313.15 K, 101.32 kPa): 0.939 ± 0.024 mPa·s and 0.8914 ± 0.0072 mPa·s
viscosity (313.15 K, 101.33 kPa): 0.9376 ± 0.059 mPa·s
viscosity (316.15 K, 101 kPa): 0.8859 ± 0.021 mPa·s
viscosity (318.15 K, 101.33 kPa): 0.8714 ± 0.056 mPa·s and 0.901 ± 0.015 mPa·s
viscosity (320.15 K, 101 kPa): 0.8276 ± 0.019 mPa·s
viscosity (323.1 K, 101 kPa): 0.809 ± 0.013 mPa·s and 0.809 ± 0.014 mPa·s
viscosity (323.15 K, 100 kPa): 0.814 ± 0.082 mPa·s
viscosity (323.15 K, 101 kPa): 0.8147 ± 0.0082 mPa·s and 0.819 ± 0.0082 mPa·s
viscosity (323.15 K, 101.33 kPa): 0.8121 ± 0.053 mPa·s

O=C1CCCCO1
viscosity (303.15 K, 101 kPa): 2.758 ± 0.19 mPa·s
viscosity (308.15 K, 101 kPa): 2.496 ± 0.17 mPa·s
viscosity (313.15 K, 101 kPa): 2.313 ± 0.16 mPa·s
viscosity (318.15 K, 101 kPa): 2.119 ± 0.15 mPa·s

FC(F)C(F)(F)OCC(F)(F)C(F)(F)C(F)(F)C(F)F
viscosity (298.15 K, 101 kPa): 2.5 ± 0.11 mPa·s
viscosity (308.15 K, 101 kPa): 2.12 ± 0.09 mPa·s
viscosity (318.15 K, 101 kPa): 1.65 ± 0.07 mPa·s
viscosity (323.15 K, 101 kPa): 1.52 ± 0.07 mPa·s

CC(C)[N+](=O)[O-]
viscosity (293.15 K, 101.33 kPa): 0.771 ± 0.008 mPa·s
